Test results reported in ChEMBL document CHEMBL3739401, “Synthesis, in vitro, and in vivo evaluation of novel functionalized quaternary ammonium curcuminoids as potential anti-cancer agents” (Bioorg Med Chem Lett, 2015).
Active and inactive are the calls of the source. The calls are words filed in the database; no cut-off is given here.

How the values were obtained:
[1] = Aqueous solubility of compound; type: physicochemical; conditions: water
[2] = Cytotoxicity against human MIAPaCa2 cells by MTT assay; type: functional, cell-based; conditions: MIA PaCa-2
[3] = test system: MDA-MB-231; assay: Cytotoxicity against human MDA-MB-231 cells by MTT assay; type: functional, cell-based
[4] = test system: 4T1; assay: Cytotoxicity against mouse 4T1 cells by MTT assay; type: functional, cell-based
[5] = test system: MDA-MB-231; assay: Cytotoxicity against human MDA-MB-231 cells at 20 to 50 uM by MTT assay; type: functional, cell-based
[6] = Antitumor activity against human MIAPaCa2 cells xenografted in athymic nude mouse assessed as tumor growth inhibition at 100 mg/kg, ip twice weekly; type: functional; conditions: MIA PaCa-2, ip, read-out: TGI
[7] = test system: Mus musculus; assay: Toxicity in CD-1 mouse assessed as survival at 30 mg/kg, ip bid; type: organism-based; conditions: in vivo
[8] = test system: Mus musculus; assay: Toxicity in CD-1 mouse assessed as effect on body weight at 30 mg/kg, ip bid; type: organism-based; conditions: in vivo
[9] = Antitumor activity against human MIAPaCa2 cells xenografted in athymic nude mouse assessed as tumor growth inhibition at 40 mg/kg, ip bid; type: functional; conditions: MIA PaCa-2, ip, read-out: TGI
[10] = test system: Mus musculus; assay: Toxicity in CD-1 mouse assessed as sign of stress at 50 mg/kg, ip measured after 7 days; type: organism-based; conditions: in vivo, 168 h
[11] = Antitumor activity against human MIAPaCa2 cells xenografted in athymic nude mouse assessed as tumor growth inhibition at 40 mg/kg, ip bid cotreated with gemcitabine (100 mg/kg, ip twice weekly; type: functional, MIA PaCa-2
[12] = test system: Mus musculus; assay: Toxicity in CD-1 mouse assessed as effect on body weight at 50 mg/kg, ip measured after 7 days; type: organism-based; conditions: in vivo, 168 h
[13] = test system: Mus musculus; assay: Toxicity in CD-1 mouse assessed as survival at 50 mg/kg, ip measured after 7 days; type: organism-based; conditions: in vivo, 168 h
[14] = test system: Mus musculus; assay: Toxicity in CD-1 mouse assessed as sign of stress at 30 mg/kg, ip bid; type: organism-based; conditions: in vivo
[15] = test system: MDA-MB-231; assay: Cytotoxicity against human MDA-MB-231 cells upto 50 uM by MTT assay; type: functional, cell-based

Row | solubility [1] [µg/mL] | Compound | IC50 [2] [µM] | IC50 [3] [µM] | IC50 [4] [µM] | further results
1 | > 100000 | C=C(C[N+]1(C)CCOCC1)C(=O)OC |  |  |  | 
2 | 1000 | C=C(C[N+]1(C)CCN(c2ccc(/C=C/C(=O)/C=C(O)/C=C/c3ccc(N4CC[N+](C)(CC(=C)C(=O)OCCCCCC)CC4)cc3)cc2)CC1)C(=O)OCCCCCC.[Br-].[Br-] | 4.2 | 4.2 | 3.4 | 
3 |  | C=C(CBr)C(=O)OC |  |  |  | Activity [5]: Active
4 |  | CN1CCN(c2ccc(/C=C/C(=O)/C=C(O)/C=C/c3ccc(N4CCN(C)CC4)cc3)cc2)CC1 | > 100 | > 100 | > 100 | 
5 |  | O=C(/C=C(O)/C=C/c1ccc(N2CCN(CCO)CC2)cc1)/C=C/c1ccc(N2CCN(CCO)CC2)cc1 | > 100 | > 100 | > 100 | 
6 | > 100000 | C[N+]1(Cc2ccccc2)CCOCC1 |  |  |  | 
7 |  | COC(=O)/C(=C/c1ccccc1)CBr |  |  |  | Activity [5]: Active
8 | > 100000 | C=CC[N+]1(C)CCOCC1 |  |  |  | 
9 |  | Nc1ccn([C@@H]2O[C@H](CO)[C@@H](O)C2(F)F)c(=O)n1 [GEMCITABINE] |  |  |  | inhibition in vivo at 100 mg/kg [6]: 47%
10 | 1000 | C=C(C[N+]1(C)CCN(c2ccc(/C=C/C(=O)/C=C(O)/C=C/c3ccc(N4CC[N+](C)(CC(=C)C(=O)N(C)C)CC4)cc3)cc2)CC1)C(=O)N(C)C.[Br-].[Br-] | 14.2 | 15.1 | 17.2 | 
11 | 1000 | C=C(C[N+]1(C)CCN(c2ccc(/C=C/C(=O)/C=C(O)/C=C/c3ccc(N4CC[N+](C)(CC(=C)C(=O)OCCCC)CC4)cc3)cc2)CC1)C(=O)OCCCC.[Br-].[Br-] | 4.4 | 3.7 | 4.1 | 
12 | 1000 | COC(=O)/C(=C\c1ccccc1)C[N+]1(C)CCN(c2ccc(/C=C/C(=O)/C=C(O)/C=C/c3ccc(N4CC[N+](C)(C/C(=C/c5ccccc5)C(=O)OC)CC4)cc3)cc2)CC1.[Br-].[Br-] | 4.1 | 6.2 | 5 | 
13 | 15000 | C=CC[N+]1(C)CCN(c2ccc(/C=C/C(=O)/C=C(O)/C=C/c3ccc(N4CC[N+](C)(CC=C)CC4)cc3)cc2)CC1.[Br-].[Br-] | > 100 | > 100 | > 100 | 
14 | 15000 | C[N+]1(Cc2ccccc2)CCN(c2ccc(/C=C/C(=O)/C=C(O)/C=C/c3ccc(N4CC[N+](C)(Cc5ccccc5)CC4)cc3)cc2)CC1.[Br-].[Br-] | > 100 | > 100 | > 100 | 
15 |  | C=C(C(=O)OC)C(O)c1ccccc1 (configuration not stated) |  |  |  | Activity [15]: inactive
16 |  | COc1cc(/C=C/C(=O)CC(=O)/C=C/c2ccc(O)c(OC)c2)ccc1O [CURCUMIN] | 20 | 15 | 20 | 

Row | Compound | solubility [1] [µg/mL] | IC50 [2] [µM] | IC50 [3] [µM] | IC50 [4] [µM] | further results
17 | C=C(C[N+]1(C)CCN(c2ccc(/C=C/C(=O)/C=C(O)/C=C/c3ccc(N4CC[N+](C)(CC(=C)C(=O)OC)CC4)cc3)cc2)CC1)C(=O)OC.[Br-].[Br-] | 1000 | 2.7 | 3.6 | 4.1 | Activity [7]: Non-toxic; Activity [8]: Non-toxic; inhibition in vivo at 40 mg/kg [9]: 42%; Activity [10]: Non-toxic; TGI [11]: 57%; Activity [12]: Non-toxic; Activity [13]: Non-toxic; Activity [14]: Non-toxic
